{
  "source": "patent US20250085272A1",
  "about": "“METHODS AND SYSTEMS FOR MODULATING AND MODELING AGING AND NEURODEGENERATION DISEASES” (MEMORIAL SLOAN-KETTERING CANCER CENTER, priority 2022, published 2025)",
  "type_in_all_cases": "cell-based, human",
  "key": {"[1]": {"test_system": "wild-type neurons", "test": "Western blotting for pTau(S202/T205) and total Tau, wild-type neurons", "conditions": "wild-type neurons (FIG. 23C)", "from_the_text": "(§1) Western blotting. Samples for western blotting were harvested, pelleted and snap frozen. Cell pellets were resuspended in RIPA buffer supplemented with Halt protease and phosphatase inhibitors (ThermoFisher) followed by centrifugation to clarify the sample. Protein concentration was quantified using the Precision Red Advanced Protein Assay according to manufacturer's instructions and equal amounts of protein were mixed with NuPAGE LDS Sample Buffer and NuPAGE Sample Reducing Agent and heated to 72 degrees for 10 mins. A total of 5-20 μg of protein was separated on NuPAGE Novex 4-12% Bis Tris gels and transferred by wet blotting onto PVDF membranes. Membranes were blocked in 5% milk protein or 5% BSA when probing for the phospho-Tau. Primary antibodies used for this study were: β-ACTIN (Sigma, A2228-100UL), BAG1 (Santa Cruz, sc-33704), BAG3 (Abcam, ab47124), Cas9 (Cell Signaling Technologies; 14697S), GAPDH-HRP (Santa Cruz Biotech, sc-47724 HRP), LMNB1 (Abcam, ab16048), NAE1(Cell Signaling Technologies, 14321S), NEDD8 (Abcam, ab81264), p21 (Cell Signaling Technologies, 2947), TAU (Dako, A0024), p-TAU(S202/T205) (Thermo Fisher; MN1020), UBA3 (Abcam, ab124728). Band intensity was visualized using BioRad ChemiDoc XRS+molecular imager. After imaging the membrane was re-probed with either GAPDH or β-ACTIN antibodies for normalization. Band intensity was quantified using Fiji."}, "[2]": {"test_system": "APP^swe/swe neurons", "test": "Western blotting for pTau(S202/T205) and total Tau, APP^swe/swe neurons", "from_the_text": "as §1"}, "[3]": {"test_system": "APP^swe/swe neurons", "test": "Western blotting for p21, LMNB1, BAG1 and BAG3", "conditions": "1 μM from DIV50-DIV60", "from_the_text": "as §1"}, "[4]": {"test_system": "conjugation of NEDD8 to target proteins", "test": "Western blotting for conjugation of NEDD8 to target proteins in cortical neurons", "conditions": "1 μM; postmitotic cortical neurons; 3 hours or 7 days of treatment", "from_the_text": "as §1"}, "[5]": {"test_system": "H9-Nurr1^GFP neurons having the LRRK2 G2019S mutation", "test": "Viability of neurons with the LRRK2 G2019S mutation", "conditions": "LRRK2 G2019S neurons (FIG. 26C)"}, "[6]": {"test_system": "APP^swe/swe neurons", "test": "Senescence associated β-gal, brightfield images", "conditions": "1 μM for 10 days"}, "[7]": {"test_system": "AD neurons", "test": "Nuclear roundness and nuclear area of AD neurons"}, "[8]": {"test_system": "wild-type or APP^swe/swe neurons", "test": "Flow cytometry for aging hallmarks (proteostasis, heterochromatin, senescence)", "method": "Flow Cytometry. Neuronal cultures were dissociated to single cell suspensions using Accutase (Innovative Cell Technologies) supplemented with Neuron Isolation Enzyme for Pierce™ (Thermo 88285) solution at 1:50. Single cell suspensions were stained with Zombie UV™ Fixable Viability Kit (Biolegend 423107) at 1:2500 in PBS for 15 minutes at room temperature, followed by fixation in 4% Paraformaldehyde for 10 minutes (4° C.). Cells stained with CellEvent Senescence Green (Thermo C10840) were done so at 1:250 in assay buffer for 2 hours at 37° C. For intracellular probes, cells were permeabilized in 0.5% triton-x for 10 minutes (4° C.), and blocked in 5% BSA for 10 minutes (4° C.). Cells were stained with H3k9me3-PE antibody (Cell Signaling Technologies #13969S) diluted 1:200, and Proteostat (Enzo Life Sciences ENZ-51023-KP050) diluted 1:2500, in 5% BSA in PBS for 30 minutes at 4° C. Cells were analyzed on the Cytek Aurora Flow Cytometer. Experiments were repeated with cells from 3 independent differentiations."}, "[9]": {"test_system": "APP^swe/swe cortical neurons", "test": "pATM immunofluorescence (DNA damage)", "conditions": "1 μM for 7 days", "method": "Immunocytochemistry. Cells were fixed in 4% paraformaldehyde for 10 mins then permeabilized in PBS+0.3% Triton. Cells were blocked in 5% donkey or goat serum for 1 h. Primary antibody incubation was performed overnight. Primary antibodies used in this study were: p-ATM (S1981) (Thermo Fisher; MA1-2020), Cas9 (Cell Signaling Technologies; 14697S), COL1A1 (R&D; AF6220), FOXG1 (Takara; M227), Ki67 (Dako; M7240), MAP2 (Thermo Fisher; PA1-16751), NANOG (Cell Signaling Technologies; 4903S), PAX6 (Biolegend; 901301), TAU (Thermo Fisher; MN1000), p-TAU (S235) (Thermo Fisher; PA5-104785). For all image quantifications images were taken from 3 individual wells and averaged. This was repeated three times with neurons from independent differentiations. Volocity was used to count MAP2+ and Ki67+ cells with pyknotic. DAPI^bright nuclei excluded from the cell count. FIJI was used for TAU and pATM quantifications."}, "[10]": {"test_system": "neurons with the PSEN^M146V/M146V mutation", "test": "Viability of neurons with the PSEN^M146V/M146V mutation", "conditions": "PSEN^M146V/M146V neurons (FIG. 25B)"}},
  "note": "“Also recorded” adds a separate entry of the source.",
  "data": [
    {"compound": "NS(=O)(=O)OC[C@@H]1C[C@@H](n2ccc3c(N[C@H]4CCc5ccccc54)ncnc32)C[C@@H]1O", "note": "[MLN4924, [(1S,2S,4R)-4-[4-[[(1S)-2,3-Dihydro-1H-inden-1-yl]amino]-7H-pyrrolo[2,3-d]pyrimidin-7-yl]-2-hydroxycyclopentyl]methyl sulfamic acid ester]", "values": [
      {"measurement": "change in pTAU(AT8) forms", "setting": "[1]", "value": "did not show the change"},
      {"measurement": "changes in phosphorylated Tau", "setting": "[2]; 1 μM from DIV50-DIV60, App^swe/swe versus wild-type neurons (FIGS. 4C-4F)", "value": "AD-specific changes in phosphorylated Tau"},
      {"measurement": "high molecular weight form of pTAU(AT8)", "setting": "[2]; AD neurons (FIG. 23A-23B)", "value": "increase in the high molecular weight form"},
      {"measurement": "major form of pTAU(AT8)", "setting": "[2]; AD neurons (FIG. 23A-23B)", "value": "decrease in major form of pTAU(AT8)"},
      {"measurement": "cellular senescence (p21, LAMNB1 Western blotting)", "setting": "[3]", "value": "increased cellular senescence"},
      {"measurement": "proteostasis (BAG1, BAG3 Western blotting)", "setting": "[3]", "value": "loss of proteostasis"},
      {"measurement": "conjugation of NEDD8 to target proteins", "setting": "[4]", "value": "effectively block the conjugation of NEDD8 to target proteins; also recorded: blocks conjugation of NEDD8 to target proteins"},
      {"measurement": "viability", "setting": "[5]", "value": "reduced viability"},
      {"measurement": "β-gal positive neurons (senescence)", "setting": "[6]", "value": "induction of showing β-gal positive"},
      {"measurement": "nuclear roundness (nuclear lamina defects)", "setting": "[7]; AD neurons (FIG. 28A)", "value": "decreased nuclear roundness"},
      {"measurement": "nuclear area (cellular senescence)", "setting": "[7]; AD neurons (FIG. 28B)", "value": "increased nuclear area"},
      {"measurement": "cellular hallmarks of age", "setting": "[8]; 1 μM for 7 or 10 days, AD-PSC (APP^swe/swe) cortical neurons (FIGS. 3A-3E)", "value": "induces cellular hallmarks of age"},
      {"measurement": "cellular age (protein aggregation, senescence, histone methylation)", "setting": "[8]; wild-type or APP^swe/swe neurons, versus DMSO (FIG. 27)", "value": "induces cellular age in both wild-type and disease backgrounds"},
      {"measurement": "pATM induction (DNA damage)", "setting": "[9]", "value": "pATM induction"},
      {"measurement": "viability", "setting": "[10]", "value": "reduced viability"}
    ]}
  ]
}
